# Reference: patent publication US20230181598A1, “FORMULATIONS AND METHODS OF TREATING COVID-19 AND PREVENTING INFECTION WITH SARS-CoV-2” (priority 2020, published 2023)
# Where “and” joins values, the source holds several entries; their conditions need not be identical. Equal values may be shown once. Read-outs that look alike come from different tables or passages of the source.
# Experiments:
# [1] = cited from earlier work
# [2] = system: SARS-CoV-2 (strain USA-WA1/2020); experiment: microbe, parasite or virus in culture; format: cell-based; conditions: for Average Log10 CCID50 virus per 0.2 mL: average of duplicate inserts; for Log10 Reduction in virus titer (CCID50) vs virus control / Log10 CCID50 virus per 0.2 mL: dNHBE cells
# [3] = 0.1 μM, single insert, day 5 after infection
smiles,measurement,setting,value
"CCOC(=O)C1=C(COCCN)NC(C)=C(C(=O)OC)C1c1ccccc1Cl (racemic) [Amlodipine besylate, 3-Ethyl-5-methyl (±)-2-[(2-aminoethoxy)methyl]4-(2-chlorophenyl)-1,4-dihydro-6-methyl-3,5-pyridinedicarboxylate, monobenzenesulphonate]",solubility in ethanol,[1]; ethanol,sparingly soluble
same,solubility in water,[1]; water,slightly soluble
CCOC(=O)C1=C(COCCN)NC(C)=C(C(=O)OC)C1c1ccccc1Cl (centres unmarked) [Amlodipine],Average Log10 CCID50 virus per 0.2 mL,"[2]; 0.1 μM, day 5",3.6 Log10 CCID50 per 0.2 mL
same,Log10 Reduction in virus titer (CCID50) vs virus control,"[2]; 0.1 μM, day 5",0.7 Log10
same,Log10 Reduction in virus titer (CCID50) vs virus control,"[2]; 0.1 μM, day 5, listed as amlodipine",~1 Log10
same,Log10 CCID50 virus per 0.2 mL,[2]; [3],3.7 Log10 CCID50 per 0.2 mL and 3.5 Log10 CCID50 per 0.2 mL
"CC#C[C@]1(O)CC[C@H]2[C@@H]3CCC4=CC(=O)CCC4=C3[C@@H](c3ccc(N(C)C)cc3)C[C@@]21C [Mifepristone, 11β-(4-dimethylaminophenyl)-17β-hydroxy-17α-(1-propynyl)-estra-4,9-dien-3-one]",Average Log10 CCID50 virus per 0.2 mL,"[2]; 5 μM, day 5",3.5 Log10 CCID50 per 0.2 mL
same,Log10 Reduction in virus titer (CCID50) vs virus control,"[2]; 5 μM, day 5",0.8 Log10
same,Log10 Reduction in virus titer (CCID50) vs virus control,"[2]; 5 μM, day 5, listed as mifepristone",~1 Log10
same,solubility,"[1]; acidic media, pH 1.5",~25 mg/mL
same,solubility,[1]; pH values above 2.5,less than 1 mg/mL
CCC(CC)COC(=O)[C@H](C)N[P@](=O)(OC[C@H]1O[C@@](C#N)(c2ccc3c(N)ncnn23)[C@H](O)[C@@H]1O)Oc1ccccc1 [Remdesivir],Log10 CCID50 virus per 0.2 mL,"[2]; 0.001 μM, day 5",4.0 Log10 CCID50 per 0.2 mL
same,Log10 CCID50 virus per 0.2 mL,"[2]; 0.01 μM, day 5",3.3 Log10 CCID50 per 0.2 mL
same,Log10 CCID50 virus per 0.2 mL,[2]; [3],2.7 Log10 CCID50 per 0.2 mL
same,Log10 CCID50 virus per 0.2 mL,"[2]; 1.0 μM, day 5",2.0 Log10 CCID50 per 0.2 mL
same,EC90,"[2]; Severe acute respiratory syndrome coronavirus 2, Vero 76",9 nM
same,EC90,"[2]; Severe acute respiratory syndrome coronavirus 2, Vero 76, 120 h, read-out: EC90 (concentration to reduce virus yield by 1 log10, regression analysis) (converted)",9 nM
